Source: patent US11274332B2, “Methods of administering 3,4-diaminopyridine” (SERB SA, priority 2011, dated 2022)

Test: Food-effect crossover study, adverse events after single 20 mg amifampridine phosphate in healthy subjects (Examples 10, 11)
Format: in vivo
Method: This was a randomized, open-label, 2-treatment, 2-period crossover study with 44 completed subjects to assess the safety, tolerability, and the effect of food on the relative bioavailability of a single dose of amifampridine phosphate.
Safety was evaluated for all subjects who take at least one dose of 3,4-DAP. Safety was evaluated by recording the incidence of adverse events (AEs), physical examination, vital signs, concomitant medications, clinical laboratory assessments, and 12-lead electrocardiogram (ECG).
Analysis for the following safety parameters was carried out on the Safety Population: AEs which included all AEs, AEs by severity, drug-related AEs, deaths, SAEs, AEs leading to study discontinuation, and most frequent AEs, standard clinical laboratory tests, vital signs, ECG measurements, routine physical examinations, and prior and concomitant medications. The cut-off for frequency of AEs reported was determined based on the data. No formal statistical testing was performed for the safety analyses; only descriptive statistics were provided. Appropriate descriptive statistics for the safety data were determined using SAS Version 9.2.
AEs were coded according to the Medical Dictionary for Regulatory Activities (MedDRA; Version 13.0). […] The occurrence of AEs was assessed continuously from the time the subject signed the VID and consent. The reporting period for non-serious AEs was from the first dose to the final study visit. The investigator determined the severity of each event and the relationship of an AE to the IP and recorded it on the source documents and AE CRF. The nature, time of onset, duration, severity, and relationship to study drug was documented, including documentation of investigator assessment and review. All events were assessed to determine if the AE was serious.
The Investigator determined the severity of each event and the event was recorded on the source documents and AE CRF. A coding of “mild” meant there was no limitation of usual activities, “moderate” meant there was some limitation of usual activities, “severe” meant there was an inability to carry out usual activities.
The reporting period for AEs that met the criteria of an SAE began from the time of signing the VID and consent form through follow-up or early termination. […] Clinical Laboratory Assessments

Compound: Nc1ccncc1N.O=P(O)(O)O [amifampridine phosphate, 3,4-diaminopyridine phosphate]
- Paraesthesia, drug-related AE: subjects (Male N=31): 6
- Possibly or probably related AEs, Mild: % of subjects (Male N=31): 58%
- Possibly or probably related AEs, Mild: events (Male N=31): 51
- Possibly or probably related AEs, Mild: subjects (Male N=31): 18
- Possibly or probably related AEs, Moderate: % of subjects (Male N=31): (0%) [0]
- Possibly or probably related AEs, Moderate: events (Male N=31): (0%) [0]
- Possibly or probably related AEs, Moderate: subjects (Male N=31): 0
- Possibly or probably related AEs, Severe: % of subjects (Male N=31): (0%) [0]
- Possibly or probably related AEs, Severe: events (Male N=31): (0%) [0]
- Possibly or probably related AEs, Severe: subjects (Male N=31): 0
- Possibly or probably related AEs, Total: % of subjects (Male N=31): 58%
- Possibly or probably related AEs, Total: events (Male N=31): 51
- Possibly or probably related AEs, Total: subjects (Male N=31): 18
- Serious adverse events: % of subjects (Male N=31): (0%) [0]
- Serious adverse events: events (Male N=31): (0%) [0]
- Serious adverse events: subjects (Male N=31): 0
- Skin and Subcutaneous Tissue Disorders Total, drug-related AE: % of subjects (Male N=31): 3%
- Skin and Subcutaneous Tissue Disorders Total, drug-related AE: events (Male N=31): 1
- Skin and Subcutaneous Tissue Disorders Total, drug-related AE: subjects (Male N=31): 1
- Vascular Disorders Total, drug-related AE: % of subjects (Male N=31): (0%) [0]
- Vascular Disorders Total, drug-related AE: events (Male N=31): (0%) [0]
- Vascular Disorders Total, drug-related AE: subjects (Male N=31): 0
- paraesthesias among the 93 drug-related AEs: % of events (Overall): 54%
- paraesthesias among the 93 drug-related AEs: events (Overall): 50
- Abdominal Pain Upper, drug-related AE: % of subjects (Overall N=47): 4%
- Abdominal Pain Upper, drug-related AE: events (Overall N=47): 2
- Abdominal Pain Upper, drug-related AE: subjects (Overall N=47): 2
- Abdominal Pain, drug-related AE: % of subjects (Overall N=47): 6%
- Abdominal Pain, drug-related AE: events (Overall N=47): 3
- Abdominal Pain, drug-related AE: subjects (Overall N=47): 3
- Abdominal Tenderness, drug-related AE: % of subjects (Overall N=47): 2%
- Abdominal Tenderness, drug-related AE: events (Overall N=47): 1
- Abdominal Tenderness, drug-related AE: subjects (Overall N=47): 1
- Acne, drug-related AE: % of subjects (Overall N=47): 2%
- Acne, drug-related AE: events (Overall N=47): 1
- Acne, drug-related AE: subjects (Overall N=47): 1
- All treatment emergent AEs, Mild: % of subjects (Overall N=47): 64%
- All treatment emergent AEs, Mild: events (Overall N=47): 98
- All treatment emergent AEs, Mild: subjects (Overall N=47): 30
- All treatment emergent AEs, Moderate: % of subjects (Overall N=47): 4%
- All treatment emergent AEs, Moderate: events (Overall N=47): 2
- All treatment emergent AEs, Moderate: subjects (Overall N=47): 2
- All treatment emergent AEs, Severe: % of subjects (Overall N=47): 2%
- All treatment emergent AEs, Severe: events (Overall N=47): 1
- All treatment emergent AEs, Severe: subjects (Overall N=47): 1
- All treatment emergent AEs, Total: events (Overall N=47): 101
- All treatment emergent AEs, Total: subjects (Overall N=47): 31
- Constipation, drug-related AE: % of subjects (Overall N=47): 2%
- Constipation, drug-related AE: events (Overall N=47): 1
- Constipation, drug-related AE: subjects (Overall N=47): 1
- Diarrhoea, drug-related AE: % of subjects (Overall N=47): 2%
- Diarrhoea, drug-related AE: events (Overall N=47): 1
- Diarrhoea, drug-related AE: subjects (Overall N=47): 1
- Discontinued due to adverse events: % of subjects (Overall N=47): 2%
- Discontinued due to adverse events: events (Overall N=47): 1
- Discontinued due to adverse events: subjects (Overall N=47): 1
- Dizziness, drug-related AE: % of subjects (Overall N=47): 11%
- Dizziness, drug-related AE: events (Overall N=47): 7
- Dizziness, drug-related AE: subjects (Overall N=47): 5
- Dysgeusia, drug-related AE: % of subjects (Overall N=47): 4%
- Dysgeusia, drug-related AE: events (Overall N=47): 3
- Dysgeusia, drug-related AE: subjects (Overall N=47): 2
- Fatigue, drug-related AE: % of subjects (Overall N=47): 9%
- Fatigue, drug-related AE: events (Overall N=47): 4
- Fatigue, drug-related AE: subjects (Overall N=47): 4
- Feeling Hot, drug-related AE: % of subjects (Overall N=47): 2%
- Feeling Hot, drug-related AE: events (Overall N=47): 1
- Feeling Hot, drug-related AE: subjects (Overall N=47): 1
- Flushing, drug-related AE: % of subjects (Overall N=47): 2%
- Flushing, drug-related AE: events (Overall N=47): 1
- Flushing, drug-related AE: subjects (Overall N=47): 1
- Gastrointestinal Disorders Total, drug-related AE: % of subjects (Overall N=47): 19%
- Gastrointestinal Disorders Total, drug-related AE: events (Overall N=47): 12
- Gastrointestinal Disorders Total, drug-related AE: subjects (Overall N=47): 9
- General Disorders and Administration Site Conditions Total, drug-related AE: % of subjects (Overall N=47): 11%
- General Disorders and Administration Site Conditions Total, drug-related AE: events (Overall N=47): 5
- General Disorders and Administration Site Conditions Total, drug-related AE: subjects (Overall N=47): 5
- Headache, drug-related AE: % of subjects (Overall N=47): 11%
- Headache, drug-related AE: events (Overall N=47): 5
- Headache, drug-related AE: subjects (Overall N=47): 5
- Hypoaesthesia Facial, drug-related AE: % of subjects (Overall N=47): 2%
- Hypoaesthesia Facial, drug-related AE: events (Overall N=47): 1
- Hypoaesthesia Facial, drug-related AE: subjects (Overall N=47): 1
- Hypoaesthesia Oral, drug-related AE: % of subjects (Overall N=47): 11%
- Hypoaesthesia Oral, drug-related AE: events (Overall N=47): 6
- Hypoaesthesia Oral, drug-related AE: subjects (Overall N=47): 5
- Hypoaesthesia, drug-related AE: % of subjects (Overall N=47): 4%
- Hypoaesthesia, drug-related AE: events (Overall N=47): 2
- Hypoaesthesia, drug-related AE: subjects (Overall N=47): 2
- Nausea, drug-related AE: % of subjects (Overall N=47): 9%
- Nausea, drug-related AE: events (Overall N=47): 4
- Nausea, drug-related AE: subjects (Overall N=47): 4
- Nervous System Disorders Total, drug-related AE: % of subjects (Overall N=47): 57%
- Nervous System Disorders Total, drug-related AE: events (Overall N=47): 74
- Nervous System Disorders Total, drug-related AE: subjects (Overall N=47): 27
- Paraesthesia Oral, drug-related AE: % of subjects (Overall N=47): 43%
- Paraesthesia Oral, drug-related AE: events (Overall N=47): 30
- Paraesthesia Oral, drug-related AE: subjects (Overall N=47): 20
- Paraesthesia, drug-related AE: % of subjects (Overall N=47): 26%
- Paraesthesia, drug-related AE: events (Overall N=47): 20
- Paraesthesia, drug-related AE: subjects (Overall N=47): 12
- Possibly or probably related AEs, Mild: % of subjects (Overall N=47): 64%
- Possibly or probably related AEs, Mild: events (Overall N=47): 92
- Possibly or probably related AEs, Mild: subjects (Overall N=47): 30
- Possibly or probably related AEs, Moderate: % of subjects (Overall N=47): 2%
- Possibly or probably related AEs, Moderate: events (Overall N=47): 1
- Possibly or probably related AEs, Moderate: subjects (Overall N=47): 1
- Possibly or probably related AEs, Severe: % of subjects (Overall N=47): (0%) [0]
- Possibly or probably related AEs, Severe: events (Overall N=47): (0%) [0]
- Possibly or probably related AEs, Severe: subjects (Overall N=47): 0
- Possibly or probably related AEs, Total: % of subjects (Overall N=47): 64%
- Possibly or probably related AEs, Total: events (Overall N=47): 93
- Possibly or probably related AEs, Total: subjects (Overall N=47): 30
- Serious adverse events: % of subjects (Overall N=47): (0%) [0]
- Serious adverse events: events (Overall N=47): (0%) [0]
- Serious adverse events: subjects (Overall N=47): 0
- Skin and Subcutaneous Tissue Disorders Total, drug-related AE: % of subjects (Overall N=47): 2%
- Skin and Subcutaneous Tissue Disorders Total, drug-related AE: events (Overall N=47): 1
- Skin and Subcutaneous Tissue Disorders Total, drug-related AE: subjects (Overall N=47): 1
- Vascular Disorders Total, drug-related AE: % of subjects (Overall N=47): 2%
- Vascular Disorders Total, drug-related AE: events (Overall N=47): 1
- Vascular Disorders Total, drug-related AE: subjects (Overall N=47): 1
- safety and tolerability (single oral 20 mg, fed and fasted): safe and well tolerated
- deaths or SAEs (whole study): no deaths or SAEs
